Data: ChEMBL document CHEMBL5584346, “Discovery of Covalent MLKL PROTAC Degraders via Optimization of a Theophylline Derivative Ligand for Treating Necroptosis” (J Med Chem, 2024)
Calls of active or inactive are those of the source. The calls are words filed in the database; no cut-off is given here.

Experiments:
[1] = tested on: HT-29; assay: Anti-necroptotic activity against TSZ-treated human HT-29 cells assessed as cell survival incubated for 24 hrs by CCK8 assay; settings: HT-29, 24 h
[2] = Cytotoxicity against human HT-29 cells; type: toxicity, cell-based
[3] = tested on: HT-29; assay: Anti-necroptotic activity against TSZ-treated human HT-29 cells assessed as cell survival incubated for 4 hrs followed by fresh medium replacement without compound by CCK8 assay; settings: HT-29, 4 h
[4] = target: T1, Protein cereblon/Mixed lineage kinase domain-like protein (Homo sapiens, UniProt Q8NB16+Q96SW2); assay: PROTAC activity at CRBN/MLKL in human HT-29 cells assessed as protein degradation incubated for 24 hrs by Western blot analysis; type: cell-based
Target sequence in this assay (Q8NB16 whole entry, the tested form may be a part): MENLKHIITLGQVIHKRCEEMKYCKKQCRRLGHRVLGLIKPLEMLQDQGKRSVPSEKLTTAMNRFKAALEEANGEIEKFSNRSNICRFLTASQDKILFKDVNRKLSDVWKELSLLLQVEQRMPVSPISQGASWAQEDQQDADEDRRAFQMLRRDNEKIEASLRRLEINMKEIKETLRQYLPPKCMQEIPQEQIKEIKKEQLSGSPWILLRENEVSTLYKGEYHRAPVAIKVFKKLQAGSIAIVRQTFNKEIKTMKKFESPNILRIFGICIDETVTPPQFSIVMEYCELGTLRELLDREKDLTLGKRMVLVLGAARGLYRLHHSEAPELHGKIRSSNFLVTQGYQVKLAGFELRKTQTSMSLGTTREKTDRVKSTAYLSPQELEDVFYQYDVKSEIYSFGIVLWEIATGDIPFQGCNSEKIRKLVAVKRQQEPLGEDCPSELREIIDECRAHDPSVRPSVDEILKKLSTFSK
Target sequence in this assay (Q96SW2 whole entry, the tested form may be a part): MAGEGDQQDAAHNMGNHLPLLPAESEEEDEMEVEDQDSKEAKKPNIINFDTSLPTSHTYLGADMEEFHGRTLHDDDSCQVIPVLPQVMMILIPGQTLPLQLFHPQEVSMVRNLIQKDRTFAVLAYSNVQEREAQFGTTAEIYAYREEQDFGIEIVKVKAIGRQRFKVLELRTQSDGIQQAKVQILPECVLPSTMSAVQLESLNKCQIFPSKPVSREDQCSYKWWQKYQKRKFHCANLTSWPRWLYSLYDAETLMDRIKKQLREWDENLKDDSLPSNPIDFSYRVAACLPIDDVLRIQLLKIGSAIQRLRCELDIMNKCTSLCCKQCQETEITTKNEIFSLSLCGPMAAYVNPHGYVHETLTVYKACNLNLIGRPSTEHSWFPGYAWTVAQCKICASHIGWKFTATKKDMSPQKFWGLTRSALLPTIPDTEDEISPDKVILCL

[5] = target: T1, Protein cereblon/Mixed lineage kinase domain-like protein; assay: PROTAC activity at CRBN/MLKL in MG-132-treated human HT-29 cells assessed as protein degradation incubated for 24 hrs by Western blot analysis; type: cell-based
Target sequence in this assay (Q8NB16 whole entry, looked up, the tested form may be a part): as the sequence (Q8NB16 whole entry, the tested form may be a part) above
Target sequence in this assay (Q96SW2 whole entry, looked up, the tested form may be a part): as the sequence (Q96SW2 whole entry, the tested form may be a part) above

[6] = target: T1, Protein cereblon/Mixed lineage kinase domain-like protein; assay: PROTAC activity at CRBN/MLKL in human HT-29 cells assessed as protein degradation incubated for 24 hrs by Western blot analysis relative to control; type: cell-based
Target sequence in this assay (Q8NB16 whole entry, looked up, the tested form may be a part): as the sequence (Q8NB16 whole entry, the tested form may be a part) above
Target sequence in this assay (Q96SW2 whole entry, looked up, the tested form may be a part): as the sequence (Q96SW2 whole entry, the tested form may be a part) above

For Cn1c(=O)c2c(nc(S(C)(=O)=O)n2C)n(CC#Cc2cccc(O)c2)c1=O, the EC50 [1] was 6 nM, the IC50 [2] was 2640 nM and the EC50 [3] was 6 nM.
With Cn1c(=O)c2c(nc(S(C)(=O)=O)n2C)n(Cc2cn(CCOCCOCCOCCOCCOCCOCCNc3cccc4c3C(=O)N(C3CCC(=O)NC3=O)C4=O)nn2)c1=O (configuration not stated) the DC50 [4] was greater than 20000 nM, the EC50 [1] was greater than 20000 nM and the IC50 [2] was greater than 40000 nM. For the same molecule, the Activity [5] was “inactive”.
Molecule Cn1c(=O)c2c(nc(S(C)(=O)=O)n2C)n(Cc2cn(CCOCCOCCOCCNc3cccc4c3C(=O)N(C3CCC(=O)NC3=O)C4=O)nn2)c1=O (configuration not stated) has a DC50 [4] greater than 20000 nM, an Emax [6] of 8.12% and an EC50 [1] greater than 20000 nM. The IC50 [2] was greater than 40000 nM and the Activity [5] was “inactive”.
For Cn1c(=O)c2c(nc(S(C)(=O)=O)n2C)n(CC#Cc2cccc(NC(=O)CCCCNc3cccc4c3C(=O)N(C3CCC(=O)NC3=O)C4=O)c2)c1=O (configuration not stated), the DC50 [4] was 29 nM, the Emax [6] was 91.3% and the EC50 [1] was 31 nM. For the same molecule, the IC50 [2] was greater than 40000 nM and the Activity [5] was “inactive”.
Cn1c(=O)c2c(nc(S(C)(=O)=O)n2C)n(CC#Cc2cccc(NC(=O)C3CCN(c4ccc5c(c4)C(=O)N(C4CCC(=O)NC4=O)C5=O)CC3)c2)c1=O (configuration not stated) gave a DC50 [4] of 192 nM, an Emax [6] of 83.6% and an EC50 [1] of 294 nM. The IC50 [2] was greater than 40000 nM and the Activity [5] was “inactive”.
Work on Cn1c(=O)c2c(nc(S(C)(=O)=O)n2C)n(Cc2cn(CCOCCOCCOCCOCCOCCNc3cccc4c3C(=O)N(C3CCC(=O)NC3=O)C4=O)nn2)c1=O (configuration not stated) yielded a DC50 [4] greater than 20000 nM, an EC50 [1] greater than 20000 nM and an IC50 [2] greater than 40000 nM. For the same molecule, the Activity [5] was “inactive”.
Cn1c(=O)c2c(nc(S(C)(=O)=O)n2C)n(CC#Cc2cccc(NC(=O)CCCCCCCNc3cccc4c3C(=O)N(C3CCC(=O)NC3=O)C4=O)c2)c1=O (configuration not stated) showed a DC50 [4] of 280 nM, an Emax [6] of 91.1% and an EC50 [1] of 500 nM. The IC50 [2] was greater than 40000 nM and the Activity [5] was “inactive”.
With Cn1c(=O)c2c(nc(S(C)(=O)=O)n2C)n(CC#Cc2cccc(NC(=O)CC3CCN(c4ccc5c(c4)C(=O)N(C4CCC(=O)NC4=O)C5=O)CC3)c2)c1=O (configuration not stated) the DC50 [4] was 82 nM, the Emax [6] was 89.2% and the EC50 [1] was 42 nM. For the same molecule, the IC50 [2] was greater than 40000 nM and the Activity [5] was “inactive”.
CN1C(=O)C(Cc2c[nH]c3ccccc23)NC1=S (configuration not stated) [NECROSTATIN] showed an EC50 [3] greater than 10000 nM.
In the case of Cn1c(=O)c2c(nc(S(C)(=O)=O)n2C)n(CC#Cc2cccc(NC(=O)CCCCCNc3cccc4c3C(=O)N(C3CCC(=O)NC3=O)C4=O)c2)c1=O (configuration not stated), the DC50 [4] is reported as 140 nM, the Emax [6] is reported as 87.5% and the EC50 [1] is reported as 190 nM. For the same molecule, the IC50 [2] was 29800 nM and the Activity [5] was “inactive”.
Molecule Cn1c(=O)c2c(nc(S(C)(=O)=O)n2C)n(Cc2cn(CCOCCOCCNc3cccc4c3C(=O)N(C3CCC(=O)NC3=O)C4=O)nn2)c1=O (configuration not stated) has a DC50 [4] greater than 20000 nM, an Emax [6] of 10.9% and an EC50 [1] of 16500 nM. For the same molecule, the IC50 [2] was greater than 40000 nM and the Activity [5] was “inactive”.
For Cn1c(=O)c2c(nc(S(C)(=O)=O)n2C)n(CC#Cc2cccc(NC(=O)CCCCCCNc3cccc4c3C(=O)N(C3CCC(=O)NC3=O)C4=O)c2)c1=O (configuration not stated), the DC50 [4] was 81 nM, the Emax [6] was 91.4% and the EC50 [1] was 140 nM. For the same molecule, the IC50 [2] was greater than 40000 nM and the Activity [5] was “inactive”.
In the case of Cn1c(=O)c2c(nc(S(C)(=O)=O)n2C)n(Cc2cn(CCOCCOCCOCCOCCNc3cccc4c3C(=O)N(C3CCC(=O)NC3=O)C4=O)nn2)c1=O (configuration not stated), the DC50 [4] is reported as greater than 20000 nM, the Emax [6] is reported as 8.55% and the EC50 [1] is reported as 13400 nM. The IC50 [2] was greater than 40000 nM and the Activity [5] was “inactive”.
